We go through 12 compounds from ChEMBL document CHEMBL1201862, “PubChem BioAssay data set” (2004).

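Tested at 5 concentrations; 48 h exposure; 96-well plates; endpoints linearly interpolated, else capped at highest concentration. GI50 = concentration required for 50% inhibition of growth.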 Active and inactive are the calls of the source. Rule as the data show it: active = GI50 up to about 1.1 µM and inactive = higher.

Common to all, as to assay: growth of human tumour cells (NCI), 48 h
In test [1] the test system is A498.
Test [2] deals with A549.
Test [3] has as its system CAKI-1.
Test [4] has as its system CCRF-CEM.
Test [5] deals with HCT-15.
Test [6] concerns HL-60.
The test system of test [7] is HT-29.
The subject of test [8] is MOLT-4.
In test [9] the test system is Malme-3M.
Test [10] deals with NCI-H226.
Test [11] concerns NCI-H522.
Test [12] has as its system OVCAR-8.
In test [13] the test system is RPMI-8226.
The subject of test [14] is SN12C.
Test [15] relates to SW-620.
Test [16] relates to U-251.
Test [17] concerns UO-31.
The subject of test [18] is PC-3.
The subject of test [19] is T47D.
Test [20] has as its system MCF7.

Consider `CC(=O)Nc1[nH]n(C)c(=O)c1-c1nnc(C)s1`, for which the GI50 is > 100 µM (inactive) in test [1]; > 100 µM (inactive) in test [2]; > 100 µM (inactive) in test [3]; > 100 µM (inactive) in test [4]; > 100 µM in [5]; > 100 µM (inactive) in test [6]. Moreover, the GI50 in [7], in test [8], in test [9], in test [10], in [11] and in test [12] was > 100 µM (inactive) throughout. For the same compound, the GI50 in [13], in test [14], in test [15], in test [16] and in test [17] was > 100 µM (inactive) each time.

Regarding `O=C(Nc1ccc([N+](=O)[O-])cc1[N+](=O)[O-])C(=O)C(C(=O)c1ccc(Cl)c(Cl)c1)C1OC(=O)c2ccccc21` (configuration not stated), the GI50 in test [1] was 21.4 µM (inactive); in test [2], 26.1 µM (inactive); in test [3], 38 µM (inactive); in test [4], 22.6 µM (inactive); in [5] it was 27.2 µM; in [6], 28.9 µM (inactive). For the same compound, the GI50 in test [7] was 25.8 µM (inactive); in test [8], 14.6 µM (inactive); in [9] it was 26.3 µM (inactive); in test [10] it was 12.4 µM (inactive); in test [11] it was 17.1 µM (inactive); in test [12], 15.2 µM (inactive). For the same compound, the GI50 is 25 µM (inactive) in [13]; 24.1 µM (inactive) in test [14]; 20.6 µM (inactive) in test [15]; 30.3 µM (inactive) in test [16]; 26.3 µM (inactive) in [17].

As for `COc1cc2c(cc1NC(=O)c1ccccc1)c1c(n2S(=O)(=O)c2ccccc2)CCN(S(=O)(=O)c2ccccc2)C1`, the GI50 in [1] is > 100 µM (inactive); in [2], > 100 µM (inactive); in test [4] it was > 100 µM (inactive); in test [5], > 100 µM; in [6], > 100 µM (inactive); in test [7], > 100 µM (inactive). The GI50 in [8], in [10], in test [12], in test [18], in [13] and in test [15] was > 100 µM (inactive) each time. Also, the GI50 was 22.1 µM (inactive) in test [19] and > 100 µM (inactive) in test [16].

For `COC(=O)c1c(O)ccc2c1c1c(n2CCc2ccccc2)C(=O)c2ccccc2C1`, the GI50 in test [1] was 19.2 µM (inactive); in [2] it was 23.5 µM (inactive); in test [3], 17.2 µM (inactive); in test [4], 21.4 µM (inactive); in [5], 19.7 µM; in [6], 28.9 µM (inactive). Also, the GI50 in test [7] was 24.4 µM (inactive); in [20] it was 14.2 µM (inactive); in test [8], 38.3 µM (inactive); in test [9], 32.3 µM (inactive); in [10], 16.3 µM (inactive); in test [12], 36.3 µM (inactive). The GI50 in [18] is 16.8 µM (inactive); in test [13] it was 11.7 µM (inactive); in test [14] it was 14.7 µM (inactive); in test [15] it was 30.1 µM (inactive); in [16], 21.9 µM (inactive); in test [17], 20.7 µM (inactive).

For `O=[N+]([O-])c1ccc(C2=Nn3cnnc3SC2)o1`, the GI50 in test [1] is 16.3 µM (inactive); in [2], 20.6 µM (inactive); in test [3] it was > 10 µM (inactive); in [4], 23 µM (inactive); in test [5], 12 µM; in test [6], 14.8 µM (inactive). Moreover, the GI50 in test [7] was 11.3 µM (inactive); in test [8] it was 20 µM (inactive); in test [9], > 10 µM (inactive); in test [10], 26.4 µM (inactive); in test [11], > 10 µM (inactive); in [12], 20.1 µM (inactive). The GI50 in test [13] is 14.6 µM (inactive); in test [14], 16.5 µM (inactive); in [15], 12.2 µM (inactive); in [16] it was 16.3 µM (inactive); in test [17], 21.4 µM (inactive).

As to `CC12CC(=O)NN=C1c1ccccc1C2` (configuration not stated), the GI50 in [1] was > 100 µM (inactive); in test [2] it was > 100 µM (inactive); in [3], > 100 µM (inactive); in test [4] it was > 100 µM (inactive); in test [5], > 100 µM; in test [6], > 100 µM (inactive). The GI50 in test [7], in test [8], in [9], in [10], in test [11] and in test [12] was > 100 µM (inactive) each time. In addition, the GI50 in test [13], in test [14], in test [15], in [16] and in [17] was > 100 µM (inactive) in each case.

Take `Nc1c(-c2nc3ccccc3[nH]2)sc(=S)n1-c1ccccc1`: the GI50 in test [1] is > 100 µM (inactive); in [2], > 100 µM (inactive); in test [3], > 100 µM (inactive); in [4] it was 26.1 µM (inactive); in test [5] it was > 100 µM; in test [6], > 100 µM (inactive). Further, the GI50 in [7] is 92.9 µM (inactive); in test [8], 16.3 µM (inactive); in test [9], 70.8 µM (inactive); in test [10], > 100 µM (inactive); in [11] it was 77.3 µM (inactive); in test [12], > 100 µM (inactive). For the same compound, the GI50 is 34 µM (inactive) in test [13]; > 100 µM (inactive) in test [14]; > 100 µM (inactive) in test [15]; 76.7 µM (inactive) in test [16]; > 100 µM (inactive) in [17].

`CNC(=O)OCc1cnc([N+](=O)[O-])n1C`: the GI50 was > 100 µM (inactive) in test [1]; > 100 µM (inactive) in test [2]; > 100 µM (inactive) in test [3]; > 100 µM (inactive) in test [4]; > 100 µM in test [5]; > 100 µM (inactive) in test [6]. Also, the GI50 in [7], in test [20], in test [8], in test [9], in test [10] and in test [11] was > 100 µM (inactive) throughout. The GI50 in test [12], in test [18], in test [13], in test [14], in [15] and in [16] was > 100 µM (inactive) in each case. Also, in test [17], the GI50 was > 100 µM (inactive).

As for `COc1cc2c(cc1OC)CC(=O)c1cc(OC)c(OC)cc1/C=C\2`, the GI50 is > 12.5 µM (inactive) in [1]; > 12.5 µM (inactive) in test [2]; > 12.5 µM (inactive) in test [3]; > 12.5 µM (inactive) in test [4]; 5.85 µM in test [5]; 2.24 µM (inactive) in test [6]. Moreover, the GI50 in test [7] is 5.79 µM (inactive); in [20], > 12.5 µM (inactive); in [8], 9.93 µM (inactive); in test [9] it was 2.93 µM (inactive); in test [10] it was > 12.5 µM (inactive); in [11], 9.44 µM (inactive). Also, the GI50 is > 12.5 µM (inactive) in test [12]; > 12.5 µM (inactive) in [18]; > 12.5 µM (inactive) in test [13]; > 12.5 µM (inactive) in [14]; 6.37 µM (inactive) in test [15]; > 12.5 µM (inactive) in test [16]. The GI50 in test [17] was > 12.5 µM (inactive).

For the compound `CNC(=O)OCc1nc([S+](C)[O-])n(C)c1COC(=O)NC` (configuration not stated), the GI50 in test [1] was 38.7 µM (inactive); in test [2], > 46.5 µM (inactive); in test [3], > 58.7 µM (inactive); in [4], > 100 µM (inactive); in test [5], > 100 µM; in test [6], > 100 µM (inactive). Besides, the GI50 in [7], in [20], in test [8], in test [9], in [10] and in test [11] was > 100 µM (inactive) each time. In addition, the GI50 was > 100 µM (inactive) in [12]; > 100 µM (inactive) in test [13]; > 100 µM (inactive) in test [14]; > 46.5 µM (inactive) in test [15]; > 100 µM (inactive) in test [16]; > 100 µM (inactive) in test [17].

Consider `COc1ccc(-c2c3ccccc3c(-c3ccc(OC)cc3)c3ccccc23)cc1`, for which the GI50 in test [1] was > 100 µM (inactive); in [2], > 100 µM (inactive); in test [3], > 100 µM (inactive); in test [4], > 100 µM (inactive); in test [5] it was > 100 µM; in [6], > 100 µM (inactive). For the same compound, the GI50 in test [7], in test [8], in test [9], in [10], in test [11] and in test [12] was > 100 µM (inactive) throughout. In addition, the GI50 in [13], in test [14], in test [15], in test [16] and in test [17] was > 100 µM (inactive) in each case.

For `CCc1ccccc1NC(=O)c1cccc([N+](=O)[O-])c1O`, the GI50 in [1] is 25.3 µM (inactive); in [2], 24.8 µM (inactive); in [3] it was 25.1 µM (inactive); in [4], 28.2 µM (inactive); in test [5], 25.8 µM; in test [6] it was 30.6 µM (inactive). Moreover, the GI50 was 26.5 µM (inactive) in test [7]; 18.6 µM (inactive) in test [8]; 24.4 µM (inactive) in [9]; 29 µM (inactive) in test [10]; 21 µM (inactive) in test [11]; 46.7 µM (inactive) in [12]. Also, the GI50 was 5.41 µM (inactive) in test [13]; 31 µM (inactive) in [14]; 38.4 µM (inactive) in [15]; 23 µM (inactive) in test [16]; 22.2 µM (inactive) in [17].
